Measurements: US7064139B2, “Method for treating retroviral infections” (Uniroyal Chemical Company, Inc., priority 2001, dated 2006)
≈ marks a conversion by molar mass, not a printed value.

What was measured:
HIV-2 (ROD) = assay: Inhibition of HIV-2 syncytium formation in CEM cells; format: cell-based; settings: for EC50 (ug/ml) HIV-2 / EC50: CEM cells, syncytium formation, day four post infection; for HIV-2 % Protection: protection of CEM cells against virus-induced cytopathicity at the concentration in the previous column; for EC50: Human immunodeficiency virus 2, CCRF-CEM, read-out: EC50 (ug/ml) HIV-2
Description: (§1) The cell type used to determine activity of the compounds of the invention herein, i.e., the test compounds, against HIV was human T-lymphoblast (CEM) cells obtained from the American Tissue Cell Culture Collection (Rockville, Md.). HIV-1 (IIIB) was originally obtained from the culture of persistently HIV-1 infected H9 cells and was provided by R. C. Gallo and M. Popovic (National Cancer Institute, National Institutes of Health, Bethesda, Md.). HIV-2 (ROD) was originally obtained from L. M. Montagnier (Pasteur Institute, Paris, France).
(§2) To determine the antiviral activity of the test compounds, CEM cells were suspended at a cell density of approximately 300,000 cells per ml of culture medium and infected with approximately 100 CCID50 (100 CCID50 being the 50% cell culture infective dose) of HIV-1 (IIIB) or HIV-2 (ROD)). Then 100 μl of the infected cell suspensions was added to 200 μl micro titer plate wells containing 100 μl of appropriate serial (5-fold) dilutions of the test compounds. The inhibitory effect of the test compounds on HIV-1 or HIV-2 syncytium formation in CEM cells was examined microscopically on day four post infection.
(§3) In these cases, the percent protection of the cells against virus-induced cytopathicity by the test compounds at the indicated compound concentration in the previous column is given.

Davis strain CMV = assay: Reduction of CMV-induced cytopathicity in HEL cells; format: cell-based, human cytomegalovirus (HCMV); settings: HEL cells; for Antiviral % Inhibition Davis strain CMV: estimate of percent protection at the concentration in the previous column; for Antiviral EC50 (ug/ml) Davis strain CMV / EC50: virus-induced cytopathicity after seven days; for EC50: Human betaherpesvirus 5, 168 h, read-out: Antiviral EC50 (ug/ml) Davis strain CMV
Protocol: Confluent HEL cells grown in […] microtiter plates were inoculated with CMV at an input of 100 PFU (plaque forming units) per well. After a one to two hour incubation period, residual virus was removed and the infected cells were further incubated with MEM (Minimal Essential Medium) (supplemented with 2% inactivated Fetal Calf Serum (FCS), […], and 0.3% sodium bicarbonate) containing varying concentrations of the test compounds. Antiviral activity was expressed as EC50 (50% effective concentration), or test compound concentration required to reduce virus-induced cytopathicity after seven days by 50% compared to the untreated control.
In some cases, the compounds had considerable cytotoxicity against HEL cells, which made determination of the EC50 difficult. In these cases, an estimate of the percent protection at the compound concentration indicated in the previous columns is given.

HIV-1 (IIIB) = assay: microbe, parasite or virus in culture; format: cell-based; settings: for EC50 (ug/ml) HIV-1 / EC50: CEM cells, syncytium formation, day four post infection; for HIV-1 % Protection: protection of CEM cells against virus-induced cytopathicity at the concentration in the previous column; for EC50: Human immunodeficiency virus 1, IIIB, CCRF-CEM, read-out: EC50 (ug/ml) HIV-1
Description: as §1, §2, §3

Compound | EC50 (ug/ml) HIV-2 (HIV-2 (ROD)) | HIV-2 % Protection (HIV-2 (ROD)) [%] | Antiviral % Inhibition Davis strain CMV (Davis strain CMV) [%] | Antiviral EC50 (ug/ml) Davis strain CMV (Davis strain CMV) [µg/mL] | EC50 (ug/ml) HIV-1 (HIV-1 (IIIB)) | HIV-1 % Protection (HIV-1 (IIIB)) [%] | EC50 (HIV-2 (ROD)) [µg/mL] | EC50 (Davis strain CMV) [µg/mL] | EC50 (HIV-1 (IIIB)) [µg/mL]
COc1cc(CS(=O)(=O)c2cccc[n+]2[O-])cc(OC)c1OC [Compound 50] | ≧20 ug/ml | 37.5 | 20.0 | >50 | ≧20 ug/ml | 37.5 |  |  | 
Cc1ccc(C)c(CS(=O)(=O)c2cccc[n+]2[O-])c1C [Compound 41] | 4.7 µg/mL (≈ 16.1 µM) |  |  | 8.6 | 5.00 µg/mL (≈ 17.2 µM) |  |  |  | 
Cc1ccc(C)c(C(C)S(=O)(=O)c2cc(C)cc[n+]2[O-])c1 (centres unmarked) [Compound 108, 2-[1-(2,5-Dimethylphenyl)ethylsulfonyl]-4-methylpyridine N-oxide] |  | 37.5 |  |  |  |  | ≥ 20 | 38 (≈ 124 µM) | 0.75 (≈ 2.46 µM)
Cc1ccc[n+]([O-])c1S(=O)(=O)C(C)c1ccccc1 (centres unmarked) [Compound 115] | >20.00 µg/mL | 0.0 | 40.0 | >50 | >20 µg/mL | 0.0 |  |  | 
O=S(=O)(Cc1c(Cl)cccc1Cl)c1cccc[n+]1[O-] [Compound 17, 2-(2,6-Dichlorophenylmethylsulfonyl)pyridine N-oxide] |  |  |  |  |  |  | 8 (≈ 25.1 µM) | 5 (≈ 15.7 µM) | 9 (≈ 28.3 µM)
O=S(=O)(Cc1c2ccccc2cc2ccccc12)c1cccc[n+]1[O-] [Compound 51, 2[1(9-anthryl)methylsulfonyl]pyridine-N-oxide] |  | 0.0 |  |  |  | 0.0 | > 0.8 | 1.3 (≈ 3.72 µM) | > 0.8
COc1ccc(C[S+]([O-])c2cccc[n+]2[O-])cc1 (centres unmarked) [Compound 86] | >0.8 µg/mL | 0.0 |  | 3.8 | >.8 µg/mL | 0.0 |  |  | 
O=S(=O)(Cc1ccc(Cl)cc1)c1cccc[n+]1[O-] [Compound 12] | 9.5 µg/mL (≈ 33.5 µM) |  |  | 20.0 | 9.50 µg/mL (≈ 33.5 µM) |  |  |  | 
COc1cc(C=C(C#N)Sc2cccc[n+]2[O-])cc(OC)c1OC [Compound 160] | >20 µg/mL | 0.0 |  | 7.0 | >20 µg/mL | 0.0 |  |  | 
Cc1cc[n+]([O-])c([S+]([O-])Cc2ccc(Cl)cc2)c1 (centres unmarked) [Compound 128] | 7.0 µg/mL (≈ 24.8 µM) |  | 40.0 | >20 | ≧4 ug/ml | 37.5 |  |  | 
Cc1ccc(C)c(C(C)S(=O)(=O)c2ccc(C)c[n+]2[O-])c1 (centres unmarked) [Compound 110, 2-[1-(2,5-Dimethylphenyl)ethylsulfonyl]-5-methylpyridine N-oxide] |  | 0.0 |  |  |  |  | > 100 | 50 (≈ 164 µM) | 5.5 (≈ 18 µM)
Cc1ccccc1CS(=O)(=O)c1cccc[n+]1[O-] [Compound 16, 2-(2-Methylphenylmethylsulfonyl)-pyridine N-oxide] |  |  |  |  |  |  | 7.5 (≈ 28.5 µM) | 12 (≈ 45.6 µM) | 11 (≈ 41.8 µM)
Cc1ccc2ccccc2c1CS(=O)(=O)c1cccc[n+]1[O-] [Compound 43] | ≧4 ug/ml | 37.5 | 20.0 | >50 | ≧4 ug/ml | 37.5 |  |  | 
O=S(=O)(Cc1ccccc1Oc1ccccc1)c1cccc[n+]1[O-] [Compound 56] | 4.7 µg/mL (≈ 13.8 µM) |  | 20.0 | >5 | 5.30 µg/mL (≈ 15.5 µM) |  |  |  | 
Cc1cc(CS(=O)(=O)c2cccc[n+]2[O-])ccc1[N+](=O)[O-] [Compound 66] | 2.5 µg/mL (≈ 8.11 µM) |  |  | 5.0 | 3.10 µg/mL (≈ 10.1 µM) |  |  |  | 
Cc1ccc(C)c(CSc2ccccn2)c1.Cl [Compound 157] | ≧20 ug/ml | 37.5 | 0.0 | >50 | 6.00 µg/mL |  |  |  | 
Cc1ccc(C)c(C(C)S(=O)(=O)c2ccccn2)c1 (centres unmarked) [Compound 161] | >100 µg/mL | 0.0 |  | 38.0 | 9.50 µg/mL (≈ 34.5 µM) |  |  |  | 

Compound | EC50 (ug/ml) HIV-2 (HIV-2 (ROD)) | HIV-2 % Protection (HIV-2 (ROD)) [%] | Antiviral % Inhibition Davis strain CMV (Davis strain CMV) [%] | Antiviral EC50 (ug/ml) Davis strain CMV (Davis strain CMV) [µg/mL] | EC50 (ug/ml) HIV-1 (HIV-1 (IIIB)) | HIV-1 % Protection (HIV-1 (IIIB)) [%] | EC50 (HIV-2 (ROD)) [µg/mL] | EC50 (Davis strain CMV) [µg/mL] | EC50 (HIV-1 (IIIB)) [µg/mL]
CCC(c1cc(C)ccc1C)S(=O)(=O)c1c(C)ccc[n+]1[O-] (centres unmarked) [Compound 79, 2-[[1-(2,5-dimethylphenyl)propyl]sulfonyl]-3-methylpyridine-1-oxide] |  | 37.5 |  |  |  |  | ≥ 20 | 0.8 (≈ 2.5 µM) | 1.4 (≈ 4.38 µM)
O=S(=O)(Cc1c(Cl)ccc(Cl)c1Cl)c1cccc[n+]1[O-] [Compound 33] | ≧4 ug/ml | 37.5 |  | 5.0 | ≧4 ug/ml | 37.5 |  |  | 
[O-][n+]1c(Cl)cccc1SCc1ccccc1 [Compound 149] | 16.0 µg/mL (≈ 63.6 µM) |  |  | 20.0 | 9.00 µg/mL (≈ 35.8 µM) |  |  |  | 
O=S(=O)(Cc1ccccc1Cl)c1cccc[n+]1[O-] [Compound 15] | 7.0 µg/mL (≈ 24.7 µM) |  |  | 5.0 | 6.00 µg/mL (≈ 21.1 µM) |  |  |  | 
CC(C)c1ccc(C(C)C)c(CS(=O)(=O)c2cccc[n+]2[O-])c1 [Compound 35] | ≧4 ug/ml | 37.5 |  | 3.2 | ≧4 ug/ml | 37.5 |  |  | 
O=S(=O)(Cc1cccc(F)c1)c1cccc[n+]1[O-] [Compound 28] | 7.5 µg/mL (≈ 28.1 µM) |  | 40.0 | >20 | 6.50 µg/mL (≈ 24.3 µM) |  |  |  | 
Cc1ccc(CS(=O)(=O)c2cccc[n+]2[O-])cc1 [Compound 11] | 10.0 µg/mL (≈ 38 µM) |  |  | 29.0 | 13.00 µg/mL (≈ 49.4 µM) |  |  |  | 
Cc1ccc([N+](=O)[O-])c(CS(=O)(=O)c2cccc[n+]2[O-])c1 [Compound 62] | 5.0 µg/mL (≈ 16.2 µM) |  | 20.0 | >5 | 1.90 µg/mL (≈ 6.16 µM) |  |  |  | 
O=S(=O)(Cc1ccc(-c2ccccc2)cc1)c1cccc[n+]1[O-] [Compound 54] | 4.0 µg/mL (≈ 12.3 µM) |  |  | 5.0 | ≧4 ug/ml | 37.5 |  |  | 
CCc1ccc(CS(=O)(=O)c2cccc[n+]2[O-])cc1 [Compound 59] | 5.0 µg/mL (≈ 18 µM) |  |  | 10.0 | 5.50 µg/mL (≈ 19.8 µM) |  |  |  | 
Cc1ccc(C)c(C(C)[S+]([O-])c2cccc[n+]2[O-])c1 (centres unmarked) [Compound 103] | >0.8 µg/mL | 0.0 |  | 4.3 | >.8 µg/mL | 0.0 |  |  | 
O=S(=O)(Cc1ccc2c(c1)OCO2)c1cccc[n+]1[O-] [Compound 39] |  |  | 30.0 | >20 | 9.00 µg/mL (≈ 30.7 µM) |  |  |  | 
Cc1ccc(C)c(CSc2c(C)ccc[n+]2[O-])c1 [Compound 164] | >20 µg/mL | 0.0 |  |  | 1.0 µg/mL (≈ 3.86 µM) |  |  |  | 
Cc1ccccc1C[S+]([O-])c1cccc[n+]1[O-] (centres unmarked) [Compound 90] |  |  |  | 37.0 | ≧20 ug/ml | 37.5 |  |  | 
Nc1ccn(C[C@@H](CO)OCP(=O)(O)O)c(=O)n1 [S-HPMPC, reference compound] |  |  |  | 0.3 |  |  |  |  | 
Nc1nc2c(ncn2COC(CO)CO)c(=O)[nH]1 [DHPG, reference compound] |  |  |  | 1 |  |  |  |  | 
